# Molecular target: T1, murine cellular dUTPase (Mus musculus, UniProt Q9CQ43)
# T1 construct: gene Dut; FLAG-tagged, expressed in 293T, anti-FLAG immunopurified, 3xFLAG peptide eluted; tag kept; homotrimer
# T1 sequence (Q9CQ43 1-162): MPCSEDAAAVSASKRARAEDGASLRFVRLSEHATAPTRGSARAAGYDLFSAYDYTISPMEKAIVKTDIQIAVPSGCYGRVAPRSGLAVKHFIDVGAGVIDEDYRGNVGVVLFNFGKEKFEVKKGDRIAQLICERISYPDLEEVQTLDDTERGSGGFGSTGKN
# Assay: dUTP hydrolysis, read out by PCR with remaining dUTP in place of dTTP (gel)
# Assay type: biochemical
# Conditions: pH 7.5, 37 C, MgCl2, DTT, BSA; 5 mM dUTP stock; 0-25 h
structure (smiles),measurement,value
O=c1ccn([C@H]2C[C@H](O)[C@@H](COP(=O)(O)OP(=O)(O)OP(=O)(O)O)O2)c(=O)[nH]1 [dUTP],"dUTP hydrolysis, read out by PCR with remaining dUTP in place of dTTP (gel)",used to determine the presence of functional dUTP after incubation

# Reference: publication PMC3188543, “The Anti-interferon Activity of Conserved Viral dUTPase ORF54 is Essential for an Effective MHV-68 Infection” (PLoS Pathogens, 2011)
